pKd, pKi: −log10 of the molar value. *1 amine or outer side, *2 acyl side, *3 side chain or, on linkers, in order; H or OH if unused. Where a SMILES comes first, the peptide text is derived from it. Bridges are numbered along the chain shown (N, C = ends). The star is where a group is joined. X1 = NC(=O)CN1CCN(CC(=O)O)CCN(CC(=O)*)CCN(CC(=O)O)CC1; oXylylene = c1ccc(C[*:2])c(C[*:1])c1; PEG2 = NCCOCCOCCC(=O)O
Columns and labels:
[1] = target: T1, mouse FAP (Mus musculus, UniProt P97321); test: Enzyme inhibition assay, binding specificity of VMT-FAP-2-59 (Example 3); assay type: biochemical; conditions: 50 μM Z-GP-AMC
T1 sequence (P97321 1-761): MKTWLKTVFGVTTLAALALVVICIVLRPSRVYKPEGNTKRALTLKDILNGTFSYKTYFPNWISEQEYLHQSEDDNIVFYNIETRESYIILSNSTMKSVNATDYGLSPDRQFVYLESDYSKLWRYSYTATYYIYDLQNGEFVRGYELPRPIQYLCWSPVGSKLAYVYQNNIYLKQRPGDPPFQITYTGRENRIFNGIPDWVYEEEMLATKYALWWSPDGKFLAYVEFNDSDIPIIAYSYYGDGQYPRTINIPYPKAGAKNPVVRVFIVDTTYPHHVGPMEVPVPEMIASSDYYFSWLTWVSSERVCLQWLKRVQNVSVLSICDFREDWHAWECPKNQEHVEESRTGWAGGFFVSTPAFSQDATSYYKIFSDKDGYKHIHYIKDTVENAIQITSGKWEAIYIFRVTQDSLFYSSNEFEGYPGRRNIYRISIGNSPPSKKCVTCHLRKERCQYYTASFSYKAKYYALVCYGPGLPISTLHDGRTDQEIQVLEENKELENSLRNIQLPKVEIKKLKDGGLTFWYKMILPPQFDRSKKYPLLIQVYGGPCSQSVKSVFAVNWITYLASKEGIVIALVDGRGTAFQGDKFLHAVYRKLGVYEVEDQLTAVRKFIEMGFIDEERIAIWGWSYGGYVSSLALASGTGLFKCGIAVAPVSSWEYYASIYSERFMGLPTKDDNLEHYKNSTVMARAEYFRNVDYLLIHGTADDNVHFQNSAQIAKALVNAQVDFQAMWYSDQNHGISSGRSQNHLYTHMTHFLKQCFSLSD
Protocol: (§1) The enzyme inhibition assay was performed to determine inhibitor constant (i.e., Ki) values against human FAP, mouse FAP, human dipeptidyl peptidase 4 (DPPIV) and human prolyl endopeptidase (PREP). Z-GP-AMC was used as substrate for human FAP, mouse FAP and human PREP. GP-AMC was used as substrate for human DPPIV. To perform the assay, VMT-FAP-2-59 at varying concentrations (i.e. 10^−6 to 10^−12) were incubated with 5 ng hFAP, 5 ng mFAP, 2.5 ng DPPIV, or 5 ng PREP in a black 96-well plate for 10 minutes at RT on a shaker plate. The substrate was added to give a final concentration of 50 μM for Z-GP-AMC and GP-AMC. The total reaction volume per well was 100 μL The reaction was allowed to incubate at RT on a shaker plate for 1 hour protected from light, and then fluorescence was read with a BioTek Synergy LX plate reader at an ex/em (360/40 and 460/40). Experiments were performed in at least duplicate. Buffer only, buffer/enzymes, buffer/substrate and enzyme only were included as controls. Data was plotted in GraphPad Prism and non-linear regression used to calculate IC50 values. Binding kinetics (Kd) of VMT-FAP-2-59 against human FAP, human DPPIV and human PREP were also determined by grating-coupled interferometry (GCI). hFAP, hDPPIV and hPREP proteins were fixed on PCH (N=3) chips or PCP (N=2). […] On PCP chips, binding affinity of VMT-FAP-2-29 to hFAP was determined from 39 pM to 20 nM. Binding affinity to hDPPIV and hPREP was determined at concentration from 39 pM to 50 nM.

[2] = target: human DPPIV (Homo sapiens, UniProt P27487); test: Grating-coupled interferometry (GCI) binding kinetics
Protocol: as §1

[3] = target: T2, human FAP (Homo sapiens, UniProt Q12884); test: as above; conditions: GCI on PCH/PCP chips
T2 sequence (Q12884 1-760): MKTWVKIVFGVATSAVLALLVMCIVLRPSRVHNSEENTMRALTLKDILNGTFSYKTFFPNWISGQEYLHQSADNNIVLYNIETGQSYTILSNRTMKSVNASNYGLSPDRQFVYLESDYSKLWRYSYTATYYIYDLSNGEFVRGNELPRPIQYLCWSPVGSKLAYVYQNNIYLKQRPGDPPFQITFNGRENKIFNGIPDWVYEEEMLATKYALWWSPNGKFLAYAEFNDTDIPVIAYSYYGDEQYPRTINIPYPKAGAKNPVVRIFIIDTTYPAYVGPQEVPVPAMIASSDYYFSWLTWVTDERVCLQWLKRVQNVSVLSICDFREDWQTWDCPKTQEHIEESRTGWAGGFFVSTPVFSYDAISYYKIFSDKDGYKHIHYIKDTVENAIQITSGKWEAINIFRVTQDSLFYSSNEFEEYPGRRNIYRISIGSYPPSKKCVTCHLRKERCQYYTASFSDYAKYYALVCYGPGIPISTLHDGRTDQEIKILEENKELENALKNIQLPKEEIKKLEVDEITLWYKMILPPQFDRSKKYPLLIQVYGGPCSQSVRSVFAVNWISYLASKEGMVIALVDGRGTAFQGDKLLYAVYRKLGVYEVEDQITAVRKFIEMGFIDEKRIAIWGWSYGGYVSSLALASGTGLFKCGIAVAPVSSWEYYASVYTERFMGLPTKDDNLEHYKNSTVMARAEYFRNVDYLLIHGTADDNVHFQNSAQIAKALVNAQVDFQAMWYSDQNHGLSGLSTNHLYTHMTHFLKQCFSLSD
Protocol: as §1

[4] = target: T3, human PREP (Homo sapiens, UniProt P48147); test: as above
T3 sequence (P48147 1-710): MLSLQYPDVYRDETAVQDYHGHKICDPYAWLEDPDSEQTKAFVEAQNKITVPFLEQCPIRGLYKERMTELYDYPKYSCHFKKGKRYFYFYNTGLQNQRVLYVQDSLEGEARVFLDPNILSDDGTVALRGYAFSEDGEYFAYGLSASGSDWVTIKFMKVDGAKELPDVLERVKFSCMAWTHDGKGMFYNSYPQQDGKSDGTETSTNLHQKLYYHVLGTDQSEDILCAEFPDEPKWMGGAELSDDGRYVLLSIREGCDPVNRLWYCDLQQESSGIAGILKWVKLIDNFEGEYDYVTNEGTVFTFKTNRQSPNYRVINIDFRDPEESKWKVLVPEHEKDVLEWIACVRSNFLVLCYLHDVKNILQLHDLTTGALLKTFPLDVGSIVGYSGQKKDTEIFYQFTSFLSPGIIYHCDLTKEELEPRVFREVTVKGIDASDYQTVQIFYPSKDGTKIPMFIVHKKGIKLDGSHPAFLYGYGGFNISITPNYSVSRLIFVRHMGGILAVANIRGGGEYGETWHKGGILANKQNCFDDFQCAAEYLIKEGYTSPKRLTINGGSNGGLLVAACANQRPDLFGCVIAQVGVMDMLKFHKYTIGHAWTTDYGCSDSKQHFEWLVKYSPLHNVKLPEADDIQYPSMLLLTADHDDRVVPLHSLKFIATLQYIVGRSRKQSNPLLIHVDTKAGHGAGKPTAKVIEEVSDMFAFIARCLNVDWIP
Protocol: as §1

Sequence of human DPPIV (P27487 whole entry): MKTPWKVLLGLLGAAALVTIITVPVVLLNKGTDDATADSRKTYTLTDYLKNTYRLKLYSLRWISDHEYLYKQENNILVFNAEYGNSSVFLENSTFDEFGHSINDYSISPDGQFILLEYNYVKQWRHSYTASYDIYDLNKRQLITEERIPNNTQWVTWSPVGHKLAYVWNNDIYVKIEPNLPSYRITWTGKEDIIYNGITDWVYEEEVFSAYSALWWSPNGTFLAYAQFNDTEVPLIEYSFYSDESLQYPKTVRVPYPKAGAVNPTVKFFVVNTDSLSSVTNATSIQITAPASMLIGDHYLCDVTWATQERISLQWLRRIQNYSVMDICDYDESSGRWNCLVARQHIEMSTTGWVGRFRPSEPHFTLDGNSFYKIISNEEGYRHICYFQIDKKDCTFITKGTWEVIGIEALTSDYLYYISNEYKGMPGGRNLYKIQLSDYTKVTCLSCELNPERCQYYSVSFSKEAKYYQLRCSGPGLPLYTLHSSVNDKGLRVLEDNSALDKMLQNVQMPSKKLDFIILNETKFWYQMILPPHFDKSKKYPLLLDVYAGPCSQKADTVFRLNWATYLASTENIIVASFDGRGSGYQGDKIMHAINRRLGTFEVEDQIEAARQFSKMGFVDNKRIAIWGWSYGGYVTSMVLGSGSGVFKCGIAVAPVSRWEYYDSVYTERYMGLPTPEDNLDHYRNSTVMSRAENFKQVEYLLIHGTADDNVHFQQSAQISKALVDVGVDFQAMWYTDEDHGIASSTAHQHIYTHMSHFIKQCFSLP

C[C@@H](O)[C@@H]1NC(=O)[C@@H](NC(=O)CCOCCOCCNC(=O)CN2CCN(CC(=O)O)CCN(CC(N)=O)CCN(CC(=O)O)CC2)CSCc2ccccc2CSC[C@@H](C(N)=O)NC(=O)[C@H](Cc2c[nH]c3ccccc23)NC(=O)[C@H](Cc2c[nH]c3ccccc23)NC(=O)[C@H](CCC(N)=O)NC(=O)[C@H](CCC(=O)O)NC(=O)[C@H](Cc2c[nH]c3ccccc23)NC(=O)[C@@H]2CCCN2C1=O [VMT-FAP-2-59, PSC-PEG2-[C(oXdB)TPWEQWWC]-NH2] ({X1-PEG2}-CTPWEQWWC-NH2; linker 1-9 via oXylylene)
pKi [1]: 8.38
Kd [2]: No binding
pKd [3]: 8.70
Kd [4]: No binding

Reference: patent US12514938B2, “Fibroblast activation protein targeting peptides” (PERSPECTIVE THERAPEUTICS, INC., priority 2023, dated 2026)
